The values that follow come from patent US6664224B2, “Quaternary ammonium salt and process for the preparation thereof” (priority 2000, dated 2003).

In one data set the test system is Proteus rettgeri NIT 96. Nature of the data set: Minimum bactericidal concentration (MBC) against bacteria. The conditions noted are these: contact 30° C. 30 minutes, culture 37° C. 24 hours. Format: cell-based. How it is done: (§1) A bacteria solution in the initial stage of logarithmic productive phase which had been adjusted with a nutrient broth according to an ordinary sterilized water dilution method such that the concentration of bacterial suspension reached 10^6 cell/ml was brought into contact with chemical solutions having concentrations which vary stepwise at a temperature of 30° C. for 30 minutes, and then transplanted to a nutrient broth where it was then allowed to stand at a temperature of 37° C. for 24 hours for culture. The nutrient broth was then examined to see if the proliferation of bacteria occurred. Thus, MBC was determined.
(§2) Five kinds of gram-negative bacteria and four kinds of gram-positive bacteria were used as sample bacteria.
(§3) BAMP-6 (Example 12), BAMD-6,8 (Example 13), BAMT-6 (Example 17) and benzalkonium chloride (Comparative Example 1) were determined for MBC value against 5 kinds of gram-negative bacteria and 4 kinds of gram-positive bacteria in the same manner as in Test Example 1.

The test system of data set [1] is Escherichia coli K12 OUT 8401. Described as above. The conditions noted are these: contact 30° C. 30 minutes, culture 37° C. 24 hours. In kind it is cell-based. How it is done: as §1, §2, §3
In a further data set the test system is Bacillus cereus IFO 3001. Described as above. Particulars: contact 30° C. 30 minutes, culture 37° C. 24 hours. Format: cell-based. The procedure:
as §1, §2, §3

Data set [2] concerns Staphylococcus aureus IFO 12732. The description is as above. In kind it is cell-based. Particulars: contact 30° C. 30 minutes, culture 37° C. 24 hours. The procedure: as §1, §2, §3
The test system of data set [3] is Bacillus subtilis IFO 3134. The description is as above. Format: cell-based. The conditions noted are these: contact 30° C. 30 minutes, culture 37° C. 24 hours. The procedure: as §1, §2, §3
Data set [4] concerns Klebsiella pneumoniae ATCC 13883. Described as above. Format: cell-based. The conditions noted are these: contact 30° C. 30 minutes, culture 37° C. 24 hours. The procedure:
as §1, §2, §3

In data set [5] the test system is Pseudomonas aeruginosa ATCC 27583. The data set is described as above. Format: cell-based. The conditions noted are these: contact 30° C. 30 minutes, culture 37° C. 24 hours. How it is done:
as §1, §2, §3

In data set [6] the test system is Escherichia coli K12 W 3110. Described as above. The conditions noted are these: contact 30° C. 30 minutes, culture 37° C. 24 hours. In kind it is cell-based. The procedure:
as §1, §2, §3

In another data set the test system is rat. The experiment in a line: Oral toxicity test on rat (LD50). Format: in vivo. The procedure: The quaternary ammonium salt of the invention is a compound having an extremely high safety, i.e., LD50 (rat) of not smaller than 2,000 mg/kg in oral toxicity test on rat.
The sample 4BAMP-6C thus obtained was then determined for oral toxicity (LD50: rat). The results were greater than 2,000 mg/kg.

The subject of the next data set is Erythrocyte. The experiment in a line: Minimum hemolytic activity concentration against erythrocyte. Particulars: human erythrocyte, 37° C. 1 hour, O.D.540, 50% hemolysis. In kind it is cell-based. How it is done:
Human blood was collected. The sample blood was then mixed with the equal amount of alsebar solution (glucose: 2.05 g; NaCl: 0.42 g; sodium citrate: 0.8 g; citric acid: 0.55 g; pH: 6.1). The mixture was then stored at a temperature of 4° C. Shortly before used for experiment, the alsebar stored blood was subjected to centrifugal separation. Thus, the supernatant liquid and the leukocyte layer on the erythrocyte were removed. To the erythrocyte was then added PBS in an amount of […] that of the erythrocyte to obtain a 50% erythrocyte. 10 μl of the 50% erythrocyte was then mixed with 990 μl of each of chemicals which had been diluted with PBS in amounts varying stepwise. The erythrocyte was acted upon by the chemical at a temperature of 37° C. for 1 hour. The mixture was then subjected to centrifugal separation. The supernatant liquid was collected for the measurement of the optical density at 540 nm (O.D.540). Separately, the foregoing procedure was followed except that no chemicals were used to prepare a 0% hemolytic control. The foregoing procedure was followed except that Milliq water was used instead of PBS to prepare a 100% hemolytic control. For the minimum hemolytic activity concentration of chemical, the minimum concentration at which the hemolytic concentration is […] was determined.

A further data set deals with cornea. The conditions noted are these: reported; eye drop; cited from earlier work.

For the substance “1,4-bis(N,N-dihexyl-N-methylammoniomethyl)phenylene dichloride [Example 4BAMP-6C]”, the MBC against Proteus rettgeri NIT 96 is on record as less than 2 ppm; in [1], 8 ppm; with Bacillus cereus IFO 3001, 4 ppm; in data set [2], less than 2 ppm; in [3], less than 2 ppm; in data set [4] it was less than 2 ppm. The MBC in data set [5] and in data set [6] was 16 ppm throughout. Moreover, in the data set with rat, the “oral toxicity LD50” value is on record as “greater than 2,000 mg/kg”. Further, in the data set on Erythrocyte, the “Minimum hemolytic activity concentration Erythrocyte” value is 400 ppm.

For the substance “benzalkonium chloride [reference compound]”, the MBC is listed as 16 ppm with Proteus rettgeri NIT 96; 8 ppm in [1]; 4 ppm against Bacillus cereus IFO 3001; less than 2 ppm in data set [2]; 4 ppm in [3]; 8 ppm in [4]. The MBC is given as 32 ppm in [5] and 16 ppm in [6]. Also, the “amount incorporated at which the cornea is damaged” value in the data set with cornea is listed as not below 0.01%. Moreover, the “Minimum hemolytic activity concentration Erythrocyte” value in the data set with Erythrocyte is reported as 25 ppm.
